Here are results for 26 compounds from US7625897B2, “Non-nucleoside reverse transcriptase inhibitors” (Roche Palo Alto LLC, priority 2005, dated 2009).

pIC50: −log10 of the molar value. Like-named read-outs stand apart in the source and are kept apart here. Some results are limits rather than exact numbers.

Broadly, the pIC50 is the negative decadic logarithm of the IC50, by convention in mol/L. As a reminder, the melting point is the temperature, or range, at which the solid turns liquid.

One data set addresses HIV-1 RT (Human immunodeficiency virus type 1 group M subtype B, UniProt P03366). Put plainly: HIV Reverse Transcriptase Assay: Inhibitor IC50 determination. Conditions: purified recombinant enzyme, poly(rA)/oligo(dT)16 template-primer, read-out: HIV-RT IC50 RT. It is filed as biochemical. The method, then: HIV Reverse Transcriptase Assay: Inhibitor IC50 determination
HIV-1 RT assay was carried out in 96-well Millipore MultiScreen MADVNOB50 plates using purified recombinant enzyme and a poly(rA)/oligo(dT)16 template-primer in a total volume of 50 μL. The assay constituents were 50 mM Tris/HCl, 50 mM NaCl, 1 mM EDTA, 6 mM MgCl2, 5 μM dTTP, 0.15 μCi [^3H] dTTP, 5 μg/ml poly (rA) pre annealed to 2.5 μg/ml oligo (dT)16 and a range of inhibitor concentrations in a final concentration of 10% DMSO. Reactions were initiated by adding 4 nM HIV-1 RT and after incubation at 37° C. for 30 min, they were stopped by the addition of 50 μl ice cold 20% TCA and allowed to precipitate at 4° C. for 30 min. The precipitates were collected by applying vacuum to the plate and sequentially washing with 3×200 μl of 10% TCA and 2×200 μl 70% ethanol. Finally, the plates were dried and radioactivity counted in a Packard TopCounter after the addition of 25 μl scintillation fluid per well. IC50's were calculated by plotting % inhibition versus log10 inhibitor concentrations.

`CC1CC(Cc2ccc(Cl)c(Oc3cc(Cl)cc(C#N)c3)c2F)=NNC1=O` (stereo in doubt) [Compound I-22, 3-chloro-5-[6-chloro-2-fluoro-3-((S)-5-methyl-6-oxo-1,4,5,6-tetrahydro-pyridazin-3-ylmethyl)-phenoxy]-benzonitrile] gave a melting point of 156.5 to 157.2 °C. Also, the pIC50 at HIV-1 RT (TABLE I) was 7.75. On the same counts, the results for `CC1CC(Cc2ccc(Cl)c(Oc3cc(Cl)cc(Br)c3)c2F)=NNC1=O` (stereo in doubt) [Compound I-23, (S)-6-[3-(3-Bromo-5-chloro-phenoxy)-4-chloro-2-fluoro-benzyl]-4-methyl-4,5-dihydro-2H-pyridazin-3-one] are 148.2 to 151 °C and 7.84. Regarding `C[C@@H]1NC(Cc2ccc(Cl)c(Oc3cccc(Br)c3)c2)=NNC1=O` [Compound I-1, (S)-3-[3-(3-Bromo-phenoxy)-4-chloro-benzyl]-5-methyl-4,5-dihydro-1H-[1,2,4]triazin-6-one], the pIC50 on HIV-1 RT (TABLE I) is 5.34. The compound `C[C@@H]1NC(Cc2ccc(Cl)c(Oc3cc(Br)cc(Br)c3)c2F)=NNC1=O` [Compound I-2, (S)-3-[4-Chloro-3-(3,5-dibromo-phenoxy)-2-fluoro-benzyl]-5-methyl4,5-dihydro-1H-[1,2,4]triazin-6-one] came in with a melting point of 88 to 91.5 °C. Also, the negative logarithm of the IC50 (pIC50) on HIV-1 RT (TABLE I) was 6.78.

`C[C@H]1NC(Cc2ccc(Cl)c(Oc3cc(Br)cc(Br)c3)c2F)=NNC1=O` [Compound I-3, (R)-3-[4-Chloro-3-(3,5-dibromo-phenoxy)-2-fluoro-benzyl]-5-methyl-4,5-dihydro-1H-[1,2,4]triazin-6-one] registered a melting point of 75.2 to 79.1 °C. For the same compound, at HIV-1 RT (TABLE I), the pIC50 is 7.97.

For `CC1OC(Cc2ccc(Cl)c(Oc3cccc(Br)c3)c2)=NNC1=O` (stereo not shown) [Compound I-4, 2-[3-(3-Bromo-phenoxy)-4-chloro-benzyl]-6-methyl-4H-[1,3,4]oxadiazin-5-one], the negative logarithm of the IC50 (pIC50) on HIV-1 RT (TABLE I) was 7.29.

For the compound `CC1OC(Cc2ccc(Cl)c(Oc3cc(Cl)cc(Br)c3)c2F)=NNC1=O` (stereo not shown) [Compound I-6, 2-[3-(3-Bromo-5-chloro-phenoxy)-4-chloro-2-fluoro-benzyl]-6-methyl-4H-[1,3,4]oxadiazin-5-one], the pIC50 at HIV-1 RT (TABLE I) is 7.61. In the case of `CC1OC(Cc2ccc(Cl)c(Oc3cc(Br)cc(Br)c3)c2F)=NNC1=O` (stereo not shown) [Compound I-7, 2-[4-Chloro-3-(3,5-dibromo-phenoxy)-2-fluoro-benzyl]-6-methyl-4H-[1,3,4]oxadiazin-5-one], the melting point is 174.2 to 176.1 °C. For the same compound, the negative-log IC50 (pIC50) on HIV-1 RT (TABLE I) was 7.61. Regarding `CC1OC(Cc2ccc(Cl)c(Oc3cc(Cl)cc(C#N)c3)c2F)=NNC1=O` (stereo not shown) [Compound I-8, 3-Chloro-5-[6-chloro-2-fluoro-3-(6-methyl-5-oxo-5,6-dihydro-4H-[1,3,4]oxadiazin-2-ylmethyl)-phenoxy]-benzonitrile], on HIV-1 RT (TABLE I), the pIC50 is 7.87. `CC1OC(Cc2ccc(Cl)c(Oc3cc(C#N)cc(C#N)c3)c2F)=NNC1=O` (stereo not shown) [Compound I-9, 5-[6-chloro-2-fluoro-3-(6-methyl-5-oxo-5,6-dihydro-4H-[1,3,4]oxadiazin-2-ylmethyl)-phenoxy]-isophthalonitrile]: the melting point was 60.9 to 67.7 °C. Also, at HIV-1 RT (TABLE I), the negative logarithm of the IC50 (pIC50) was 7.39. On the same counts, the results for `O=C1NN=C(Cc2ccc(Cl)c(Oc3cc(Br)cc(Br)c3)c2F)NC12CC2` [Compound I-10, 5-[4-Chloro-3-(3,5-dibromo-phenoxy)-2-fluoro-benzyl]-4,6,7-triaza-spiro[2.5]oct-5-en-8-one] are 90 to 95 °C and 7.18. For the compound `CC1(C)OC(Cc2ccc(Cl)c(Oc3cccc(Br)c3)c2)=NNC1=O` [Compound I-11, 2-[3-(3-Bromo-phenoxy)4-chloro-benzyl]-6,6-dimethyl-4H-[1,3,4]oxadiazin-5-one], on HIV-1 RT (TABLE I), the negative logarithm of the IC50 (pIC50) was under 5.00. Still for that read-out and setting: under `CCC1OC(Cc2ccc(Cl)c(Oc3cccc(Br)c3)c2)=NNC1=O` (stereo not shown) [Compound I-12, 2-[3-(3-Bromo-phenoxy)-4-chloro-benzyl]-6-ethyl-4H-[1,3,4]oxadiazin-5-one] stands 6.67. The compound `CC1(C)OC(Cc2ccc(Cl)c(Oc3cccc(C#N)c3)c2)=NNC1=O` [Compound I-13, 3-[2-Chloro-5-(6,6-dimethyl-5-oxo-5,6-dihydro-4H-[1,3,4]oxadiazin-2-ylmethyl)-phenoxy]-benzonitrile] had a melting point of 94.1 to 95.3 °C. The pIC50 on HIV-1 RT (TABLE I) is 5.02.

Regarding `CCC1OC(Cc2ccc(Cl)c(Oc3cccc(C#N)c3)c2)=NNC1=O` (stereo not shown) [Compound I-14, 3-[2-Chloro-5-(6-ethyl-5-oxo-5,6-dihydro4H-[1,3,4]oxadiazin-2-ylmethyl)-phenoxy]-benzonitrile], the pIC50 on HIV-1 RT (TABLE I) is 6.89. On the same count and under the same terms, under `C[C@H]1NC(Cc2ccc(Cl)c(Oc3cc(C#N)cc(C(F)F)c3)c2F)=NNC1=O` [Compound I-16, 3-[6-Chloro-2-fluoro-3-((R)-5-methyl-6-oxo-1,4,5,6-tetrahydro-[1,2,4]triazin-3-ylmethyl)-phenoxy]-5-difluoromethyl-benzonitrile] stands 7.82; under `CC[C@H]1NC(Cc2ccc(Cl)c(Oc3cc(Cl)cc(C#N)c3)c2F)=NNC1=O` [Compound I-17, 3-Chloro-5-[6-chloro-3-((R)-5-ethyl-6-oxo-1,4,5,6-tetrahydro-[1,2,4]triazin-3-ylmethyl)-2-fluoro-phenoxy]-benzonitrile], 7.89. Take `C[C@@H]1NC(Cc2ccc(Cl)c(Oc3cc(Cl)cc(C#N)c3)c2F)=NNC1=O` [Compound I-18, 3-Chloro-5-[6-chloro-2-fluoro-3-(5-methyl-6-oxo-1,4,5,6-tetrahydro-[1,2,4]triazin-3-ylmethyl)-phenoxy]-benzonitrile]: the pIC50 at HIV-1 RT (TABLE I) was 7.92. On to `Cc1ccc(CC2=NNC(=O)[C@@H](C)N2)c(F)c1Oc1cc(C#N)cc(C(F)F)c1` [Compound I-19, 3-Difluoromethyl-5-[2-fluoro-6-methyl-3-((R)-5-methyl-6-oxo-1,4,5,6-tetrahydro-[1,2,4]triazin-3-ylmethyl)-phenoxy]-benzonitrile], for which the pIC50 on HIV-1 RT (TABLE I) was 7.74. `C[C@H]1CC(Cc2ccc(Cl)c(Oc3cccc(Br)c3)c2)=NNC1=O` [Compound I-20, (S)-6-[3-(3-Bromo-phenoxy)4-chloro-benzyl]-4-methyl-4,5-dihydro-2H-pyridazin-3-one]: the pIC50 at HIV-1 RT (TABLE I) was 7.18.

Turning to `C[C@H]1CC(Cc2ccc(Cl)c(Oc3cccc(C#N)c3)c2)=NNC1=O` [Compound I-21, 3-[2-chloro-5-((S)-5-methyl-6-oxo-1,4,5,6-tetrahydro-pyridazin-3-ylmethyl)-phenoxy]-benzonitrile], the negative-log IC50 (pIC50) on HIV-1 RT (TABLE I) was 7.33. In the case of `O=C1CCC(Cc2ccc(Cl)c(Oc3ccccc3)c2)=NN1` [Compound I-24, 6-(4-Chloro-3-phenoxy-benzyl)-4,5-dihydro-2H-pyridazin-3-one], at HIV-1 RT (TABLE I), the negative logarithm of the IC50 (pIC50) is 5.58. Same read-out and setting: the value for `CC1(C)NC(Cc2ccc(Cl)c(Oc3cc(Cl)cc(C#N)c3)c2F)=NNC1=O` [Compound I-27] was 5.15; that for `N#Cc1cc(Cl)cc(Oc2c(Cl)ccc(CC3=NNC(=O)C(C(F)(F)F)N3)c2F)c1` (stereo not shown) [Compound I-29] was 7.57. Take `Cc1nc(Cc2ccc(Cl)c(Oc3cccc(Br)c3)c2)n[nH]c1=O` [II-1]: the pIC50 on HIV-1 RT (TABLE II) is 6.48. Turning to `Cc1nc(Cc2ccc(Cl)c(Oc3cc(Br)cc(C#N)c3)c2F)n[nH]c1=O` [II-6, 3-Bromo-5-[6-chloro-2-fluoro-3-(5-methyl-6-oxo-1,6-dihydro-[1,2,4]triazin-3-ylmethyl)-phenoxy]-benzonitrile], the pIC50 on HIV-1 RT (TABLE II) was 7.49.
